According to US3966978A (American Cyanamid Company, priority 1975, dated 1976):
“And” between values parts separate entries of the source, which are not always exact repeats. Equal entries are not always repeated.

Assays:
[1] = tested on: human platelet rich plasma; experiment: Collagen-induced platelet aggregation in vitro in human platelet rich plasma (method of Born and O'Brien), change in optical density; type: cell-based; conditions: collagen 500 mcg./ml., read-out: Percent Inhibition (of maximum aggregation response to collagen in a control sample)
Protocol: Various concentrations of the compound were added in vitro to human platelet rich plasma. Collagen (final concentration 500 mcg./ml.) was added to induce platelet aggregation. Inhibition of platelet aggregation was determined by measuring the change in the optical density of the platelet rich plasma.

[2] = tested on: respiratory depression associated with platelet aggregation and thrombosis induced by arachidonic acid; experiment: Respiratory depression induced by arachidonic acid in mice; type: in vivo
Protocol: Two hours later a challenge dose of arachidonic acid was given to the mice intravenously at a concentration of 50 mg./kg. The period of respiratory distress for each animal was recorded in seconds by observation. The results appear in Table III in comparison with controls who received only starch vehicle.

pain = conditions: warm-blooded animals; U.S. Pat. No. 3,784,704; cited from earlier work
platelet rich plasma = experiment: Collagen-induced aggregation of platelet rich plasma from orally treated male rats; type: in vivo; conditions: Rattus norvegicus, po, 2 h, 100 mg./kg. orally, bled after one to two hours, collagen 500 mcg./ml., read-out: Percent Inhibition of aggregation
Protocol: In a second test the in vivo activity of the compound was established. In this test the compound was administered orally to male rats at a concentration of 100 mg./kg. After one to two hours, the rats were bled and platelet rich plasma obtained. Collagen, at a concentration of 500 mcg./ml. was added to induce platelet aggregation and comparisons were made between control and treated samples. The percent inhibition of aggregation produced by the compound of this invention appears in Table II.

O=C(O)Cc1ccc(-c2ccccc2)cc1 [4-Biphenylacetic acid]
inhibition at 25 µg/mL ([1]; concentration 25 mcg./ml.): 38.6%
inhibition at 250 µg/mL ([1]; concentration 250 mcg./ml.): 40.7%
period of respiratory distress, Average, Treated ([2]; 100 mg./kg. orally, arachidonic acid 50 mg./kg. i.v. two hours later, average of 21 treated animals (controls 7.58 minutes)): 1.93 min
period of respiratory distress, Time in Seconds, Treated (individual animals) ([2]; 100 mg./kg. orally, arachidonic acid 50 mg./kg. i.v. two hours later, individual animals 1-21, one line each in order): 420 s and 200 s and 30 s and 150 s and 170 s and 80 s and 195 s and 125 s and 35 s and 120 s and 25 s and 20 s and 60 s and 50 s and 90 s and 75 s and 70 s and 189 s and 100 s
inhibition of respiratory depression induced by arachidonic acid (in words) ([2]; in vivo): inhibits the respiratory depression
amelioration of pain (in words) (pain): long lasting amelioration of pain
inhibition at 100 mg/kg (platelet rich plasma): 12%
